The source made the active and inactive calls. The rule behind the calls is not given here. Where a SMILES comes first, the peptide text is derived from it.
Columns and labels:
[1] = tested on: Klebsiella pneumoniae; assay: Synergistic antibacterial activity against Klebsiella pneumoniae ATCC BAA 1705 assessed as fractional inhibitory concentration index incubated for 24 hrs in presence of vancomycin by checkerboard assay; type: functional
[2] = tested on: Klebsiella pneumoniae; assay: Antibacterial activity against Klebsiella pneumoniae ATCC BAA 1705 assessed as daptomycin MIC incubated for 24 hrs by microbroth dilution assay; type: functional
[3] = tested on: Escherichia coli; assay: Antibacterial activity against carbapenem and NDM-1 positive resistant Escherichia coli ATCC BAA 2452 assessed as reduction in microbial growth incubated for 24 hrs by microbroth dilution method; type: functional
[4] = tested on: Klebsiella pneumoniae; assay: Antibacterial activity against Klebsiella pneumoniae ATCC BAA 1705 assessed as tobramycin MIC incubated for 24 hrs by microbroth dilution assay; type: functional
[5] = tested on: Klebsiella pneumoniae; assay: Antibacterial activity against Klebsiella pneumoniae ATCC 13883 assessed as reduction in microbial growth incubated for 24 hrs by microbroth dilution method; type: functional
[6] = tested on: Klebsiella pneumoniae; assay: Synergistic antibacterial activity against Klebsiella pneumoniae ATCC BAA 1705 assessed as fractional inhibitory concentration index incubated for 24 hrs in presence of tetracycline by checkerboard assay; type: functional
[7] = tested on: Pseudomonas aeruginosa; assay: Bactericidal activity against Pseudomonas aeruginosa ATCC BAA 1744 assessed as reduction in colony formation at MIC measured after 18 hrs by Time kill assay; type: functional, organism-based
[8] = tested on: Pseudomonas aeruginosa; assay: Antibacterial activity against carbapenem resistant Pseudomonas aeruginosa ATCC BAA 1744 assessed as reduction in microbial growth incubated for 24 hrs by microbroth dilution method; type: functional
[9] = tested on: Pseudomonas aeruginosa; assay: Synergistic antibacterial activity against Pseudomonas aeruginosa ATCC 27883 assessed as fractional inhibitory concentration index incubated for 24 hrs in presence of levofloxacin by checkerboard assay; type: functional
[10] = tested on: Staphylococcus aureus; assay: Antibacterial activity against Staphylococcus aureus ATCC 29213 assessed as reduction in microbial growth incubated for 24 hrs by microbroth dilution method; type: functional
[11] = tested on: Escherichia coli; assay: Synergistic antibacterial activity against Escherichia coli ATCC 25922 assessed as fractional inhibitory concentration index incubated for 24 hrs in presence of polymyxin B by checkerboard assay; type: functional
[12] = tested on: Staphylococcus aureus; assay: Antibacterial activity against Staphylococcus aureus ATCC BAA -1556 assessed as tetracycline MIC incubated for 24 hrs by microbroth dilution assay; type: functional
[13] = tested on: Klebsiella pneumoniae; assay: Antibacterial activity against Klebsiella pneumoniae ATCC BAA 1705 assessed as clindamycin MIC incubated for 24 hrs by microbroth dilution assay; type: functional
[14] = tested on: Pseudomonas aeruginosa; assay: Synergistic antibacterial activity against Pseudomonas aeruginosa ATCC 27883 assessed as fractional inhibitory concentration index incubated for 24 hrs in presence of ciprofloxacin by checkerboard assay; type: functional
[15] = tested on: Escherichia coli; assay: Antibacterial activity against Escherichia coli ATCC 25922 assessed as levofloxacin MIC incubated for 24 hrs by microbroth dilution assay; type: functional
[16] = tested on: Klebsiella pneumoniae; assay: Synergistic antibacterial activity against imipenem resistant Klebsiella pneumoniae ATCC BAA 1705 assessed as fractional inhibitory concentration index incubated for 24 hrs in presence of meropenem; type: functional
[17] = tested on: Pseudomonas aeruginosa; assay: Antibacterial activity against Pseudomonas aeruginosa ATCC 27883 assessed as reduction in microbial growth incubated for 24 hrs by microbroth dilution method; type: functional
[18] = tested on: Klebsiella pneumoniae; assay: Bactericidal activity against Klebsiella pneumoniae ATCC BAA 1705 assessed as decrease of bacterial growth at MIC by Time kill assay; type: functional, organism-based
[19] = tested on: Klebsiella pneumoniae; assay: Bactericidal activity against Klebsiella pneumoniae ATCC BAA 1705 assessed as reduction in colony formation at MIC measured after 24 hrs by Time kill assay; type: functional, organism-based
[20] = Hemolytic activity in human Red blood cell incubated for 2 hrs by spectrophotometric analysis; type: toxicity, cell-based, Erythrocyte; details: red blood cells (erythrocytes)
[21] = tested on: Cell membrane; assay: Induction of membrane disruption in Pseudomonas aeruginosa ATCC BAA 1744 assessed as increase in PI positive cells at 4 times of MIC incubated for 2 hrs by Propidium iodide staining based FACS cytometry analysis relative to control; type: subcellular
[22] = tested on: Klebsiella pneumoniae; assay: Antibacterial activity against Klebsiella pneumoniae ATCC BAA 1705 assessed as ciprofloxacin MIC incubated for 24 hrs by microbroth dilution assay; type: functional
[23] = tested on: Escherichia coli; assay: Antibacterial activity against Escherichia coli ATCC 25922 assessed as reduction in microbial growth incubated for 24 hrs by microbroth dilution method; type: functional
[24] = tested on: Escherichia coli; assay: Synergistic antibacterial activity against Escherichia coli ATCC 25922 assessed as fractional inhibitory concentration index incubated for 24 hrs in presence of meropenem by checkerboard assay; type: functional
[25] = tested on: Pseudomonas aeruginosa; assay: Bactericidal activity against Pseudomonas aeruginosa ATCC BAA 1744 assessed as decrease of bacterial growth at MIC measured after 12 hrs by Time kill assay; type: functional, organism-based
[26] = tested on: Staphylococcus aureus; assay: Synergistic antibacterial activity against methicillin resistant Staphylococcus aureus ATCC BAA -1556 assessed as fractional inhibitory concentration index incubated for 24 hrs in presence of daptomycin by checkerboard assay; type: functional
[27] = tested on: Klebsiella pneumoniae; assay: Antibacterial activity against Klebsiella pneumoniae ATCC BAA 1705 assessed as tetracycline MIC incubated for 24 hrs by microbroth dilution assay; type: functional
[28] = tested on: Klebsiella pneumoniae; assay: Antibacterial activity against Klebsiella pneumoniae ATCC BAA 1705 assessed as polymyxin B MIC incubated for 24 hrs by microbroth dilution assay; type: functional
[29] = tested on: Pseudomonas aeruginosa; assay: Antibacterial activity against Pseudomonas aeruginosa ATCC 27883 assessed as tobramycin MIC incubated for 24 hrs by microbroth dilution assay; type: functional
[30] = tested on: Escherichia coli; assay: Synergistic antibacterial activity against Escherichia coli ATCC 25922 assessed as fractional inhibitory concentration index incubated for 24 hrs in presence of kanamycin by checkerboard assay; type: functional
[31] = Cytotoxicity against HEK293 cells assessed as effect on cell viability at 10 to 25 ug/ml incubated for 24 hrs by microplate reader analysis relative to control; type: toxicity, cell-based; details: human, at 10 to 25 µg/mL, dose 10-25 µg/ml, read-out: Activity
[32] = tested on: Klebsiella pneumoniae; assay: Antibacterial activity against imipenem resistant Klebsiella pneumoniae ATCC BAA 1705 assessed as reduction in microbial growth incubated for 24 hrs by microbroth dilution method; type: functional
[33] = tested on: Staphylococcus aureus; assay: Synergistic antibacterial activity against methicillin resistant Staphylococcus aureus ATCC BAA -1556 assessed as fractional inhibitory concentration index incubated for 24 hrs in presence of meropenem by checkerboard assay; type: functional
[34] = tested on: Klebsiella pneumoniae; assay: Bactericidal activity against Klebsiella pneumoniae ATCC BAA 1705 assessed as decrease in bacterial growth at MIC measured after 18 hrs by Time kill assay; type: functional, organism-based
[35] = tested on: Klebsiella pneumoniae; assay: Antibacterial activity against Klebsiella pneumoniae ATCC BAA 1705 assessed as levofloxacin MIC incubated for 24 hrs by microbroth dilution assay; type: functional
[36] = tested on: Pseudomonas aeruginosa; assay: Synergistic antibacterial activity against carbapenem resistant Pseudomonas aeruginosa ATCC BAA 1744 assessed as fractional inhibitory concentration index incubated for 24 hrs in presence of meropenem by checkerboard assay; type: functional
[37] = tested on: Staphylococcus aureus; assay: Antibacterial activity against Staphylococcus aureus ATCC BAA -1556 assessed as tobramycin MIC incubated for 24 hrs by microbroth dilution assay; type: functional
[38] = tested on: Pseudomonas aeruginosa; assay: Antibacterial activity against Pseudomonas aeruginosa ATCC 27883 assessed as tetracycline MIC incubated for 24 hrs by microbroth dilution assay; type: functional
[39] = tested on: Pseudomonas aeruginosa; assay: Synergistic antibacterial activity against Pseudomonas aeruginosa ATCC 27883 assessed as fractional inhibitory concentration index incubated for 24 hrs in presence of meropenem by checkerboard assay; type: functional
[40] = tested on: Klebsiella pneumoniae; assay: Antibacterial activity against Klebsiella pneumoniae ATCC BAA 1705 assessed as kanamycin MIC incubated for 24 hrs by microbroth dilution assay; type: functional
[41] = tested on: Escherichia coli; assay: Antibacterial activity against Escherichia coli ATCC 25922 assessed as polymyxin B MIC incubated for 24 hrs by microbroth dilution assay; type: functional

Q: What does the source list for N=C(N)NCCC[C@@H]1NC(=O)[C@H](CCCNC(=N)N)NC(=O)[C@H](CCCNC(=N)N)NC(=O)[C@H](CCCNC(=N)N)NC(=O)[C@H](Cc2c[nH]c3ccccc23)NC(=O)[C@H](Cc2c[nH]c3ccccc23)NC(=O)[C@H](Cc2c[nH]c3ccccc23)NC(=O)[C@H](Cc2c[nH]c3ccccc23)NC(=O)[C@H](CCCCN)NC(=O)[C@H](CCCNC(=N)N)NC1=O (cyclo(KWWWWRRRRR))?
A: fractional inhibitory concentration index (FICI) [1]: 0.5625; MIC [2]: 16 µg/mL; MIC [3]: 16 µg/mL; MIC [4]: 2 µg/mL; MIC [5]: 16 µg/mL; fractional inhibitory concentration index (FICI) [6]: 0.3125; Activity [7]: Active; MIC [8]: 16 µg/mL; fractional inhibitory concentration index (FICI) [9]: 0.375; MIC [10]: 4 µg/mL; fractional inhibitory concentration index (FICI) [11]: 0.3125; MIC [12]: 0.0625 µg/mL; MIC [13]: 2 µg/mL; fractional inhibitory concentration index (FICI) [14]: 0.5; MIC [15]: 8 µg/mL; fractional inhibitory concentration index (FICI) [16]: 0.75; MIC [17]: 16 µg/mL; Activity [18]: Active; Activity [19]: Active; HC50 at 2 h [20]: 320 µg/mL; Activity [21]: 66.8%; MIC [22]: 16 µg/mL; MIC [23]: 16 µg/mL; fractional inhibitory concentration index (FICI) [24]: 1.25; Activity [25]: Active; fractional inhibitory concentration index (FICI) [26]: 0.5; MIC [27]: 1 µg/mL; MIC [28]: 0.063 µg/mL; MIC [29]: 0.125 µg/mL; fractional inhibitory concentration index (FICI) [30]: 0.375; viability at 24 h [31]: 86%; MIC [32]: 32 µg/mL; fractional inhibitory concentration index (FICI) [33]: 1; Activity [34]: Active; MIC [35]: 8 µg/mL; fractional inhibitory concentration index (FICI) [36]: 0.156; MIC [37]: 0.0625 µg/mL; MIC [38]: 4 µg/mL; fractional inhibitory concentration index (FICI) [39]: 0.375; MIC [40]: 8 µg/mL; MIC [41]: 0.125 µg/mL

Reference: ChEMBL document CHEMBL5154823, “Amphiphilic cyclic peptide [W4KR5]-Antibiotics combinations as broad-spectrum antimicrobial agents” (Eur J Med Chem, 2022)
